The results in this text go back to ChEMBL document CHEMBL1821562, “Amine-constrained pyridazinone histamine H₃ receptor antagonists” (Bioorg Med Chem Lett, 2011).

In data set [1] the target is Histamine H3 receptor (Homo sapiens, UniProt Q9Y5N1). The experiment in a line: Displacement of [3H]-NAMH from human histamine H3 receptor.
Data set [2] concerns the target Histamine H3 receptor (Rattus norvegicus, UniProt Q9QYN8). The experiment in a line: Displacement of [3H]-NAMH from rat histamine H3 receptor.
A short description of data set [3]: Metabolic stability in mouse liver microsomes assessed as half life. The data set is classed as ADME, Microsome. A general note: Microsomes from liver hold many membrane-bound enzymes, among them those of drug oxidation.
Data set [4] is described as follows: Metabolic stability in rat liver microsomes assessed as half life. The data set is classed as ADME, Microsome.
The nature of data set [5]: Metabolic stability in dog liver microsomes assessed as half life. It is filed as ADME, Canis lupus familiaris, Microsome.
Data set [6] can be described thus: Metabolic stability in human liver microsomes assessed as half life. It is filed as ADME, Microsome.
Data set [7] in a line: Volume of distribution in rat at 1 mg/kg, iv. The data set is classed as ADME, organism-based. The note with it: in vivo. Also on record: dose 1 mg/kg, route intravenous.
Data set [8] in a line: Cmax in rat at 5 mg/kg, po. It is filed as ADME, organism-based. Also on record: dose 5 mg/kg, route oral. The note with it: in vivo.
For data set [9], the system named is Rattus norvegicus. The experiment in a line: AUC (0 to 6 hrs) in rat at 5 mg/kg, po. The data set is classed as ADME, organism-based, Plasma. Also on record: time < 6 hr, dose 5 mg/kg, route oral. The note with it: in vivo.
Data set [10] can be described thus: Oral bioavailability in rat at 5 mg/kg. The following applies: in vivo. The data set is classed as ADME, organism-based.
Data set [11] is described as follows: Drug uptake in rat brain at 10 mg/kg, ip after 1 hr. The data set is classed as ADME, organism-based. Details: dose 10 mg/kg, route intraperitoneal. The following applies: read-out: Drug uptake.
Data set [12] can be described thus: Ratio of drug level in brain to plasma in rat at 10 mg/kg, ip. Also on record: dose 10 mg/kg, route intraperitoneal. The note with it: brain and plasma, read-out: BPR. It is filed as ADME, organism-based.
Data set [13] is described as follows: Tmax in rat at 5 mg/kg, po. Details: dose 5 mg/kg, route oral. The following applies: in vivo. The data set is classed as ADME, organism-based.
The nature of data set [14]: Half life in rat at 1 mg/kg, iv. The data set is classed as ADME, organism-based. Details: dose 1 mg/kg, route intravenous. The following applies: in vivo.
Data set [15] is described as follows: Clearance in rat at 1 mg/kg, iv. The note with it: in vivo. Details: dose 1 mg/kg, route intravenous. The data set is classed as ADME, organism-based.
In another data set the target is T1, Cytochrome P450 1A2 (Homo sapiens, UniProt P05177).
T1 sequence (P05177 whole entry): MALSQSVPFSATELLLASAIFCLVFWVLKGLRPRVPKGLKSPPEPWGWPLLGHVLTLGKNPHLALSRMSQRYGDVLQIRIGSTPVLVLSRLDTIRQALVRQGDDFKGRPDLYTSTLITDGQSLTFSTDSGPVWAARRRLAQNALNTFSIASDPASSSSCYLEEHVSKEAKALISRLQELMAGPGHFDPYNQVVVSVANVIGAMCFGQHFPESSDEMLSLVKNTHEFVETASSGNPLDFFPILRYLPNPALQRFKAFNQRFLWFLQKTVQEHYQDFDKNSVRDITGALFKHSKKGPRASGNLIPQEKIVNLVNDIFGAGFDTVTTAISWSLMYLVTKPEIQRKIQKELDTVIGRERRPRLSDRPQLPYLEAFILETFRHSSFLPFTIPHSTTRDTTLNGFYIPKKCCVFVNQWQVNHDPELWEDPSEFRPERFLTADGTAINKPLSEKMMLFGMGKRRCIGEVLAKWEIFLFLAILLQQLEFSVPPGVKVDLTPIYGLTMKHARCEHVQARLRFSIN
The experiment in a line: Inhibition of CYP1A2. It is filed as ADME.

In a further data set the target is Cytochrome P450 2C19 (Homo sapiens, UniProt P33261). Nature of the data set: Inhibition of CYP2C19. The data set is classed as ADME.
Chain of Cytochrome P450 2C19 (P33261 whole entry): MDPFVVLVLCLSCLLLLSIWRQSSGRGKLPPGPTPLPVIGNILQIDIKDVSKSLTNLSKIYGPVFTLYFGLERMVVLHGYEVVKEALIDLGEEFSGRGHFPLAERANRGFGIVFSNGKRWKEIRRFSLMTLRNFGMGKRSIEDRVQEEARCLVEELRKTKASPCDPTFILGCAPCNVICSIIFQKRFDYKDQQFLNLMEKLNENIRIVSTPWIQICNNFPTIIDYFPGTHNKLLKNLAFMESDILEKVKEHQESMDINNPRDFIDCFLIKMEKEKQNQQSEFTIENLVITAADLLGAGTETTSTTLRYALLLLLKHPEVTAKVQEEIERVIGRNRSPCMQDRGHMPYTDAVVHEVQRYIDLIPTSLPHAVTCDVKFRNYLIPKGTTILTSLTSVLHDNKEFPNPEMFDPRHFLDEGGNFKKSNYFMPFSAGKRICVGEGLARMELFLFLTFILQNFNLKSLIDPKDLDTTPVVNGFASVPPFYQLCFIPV
The target in another data set is Cytochrome P450 2C9 (Homo sapiens, UniProt P11712). Nature of the data set: Inhibition of CYP2C9. It is filed as ADME.
Chain of Cytochrome P450 2C9 (P11712 whole entry): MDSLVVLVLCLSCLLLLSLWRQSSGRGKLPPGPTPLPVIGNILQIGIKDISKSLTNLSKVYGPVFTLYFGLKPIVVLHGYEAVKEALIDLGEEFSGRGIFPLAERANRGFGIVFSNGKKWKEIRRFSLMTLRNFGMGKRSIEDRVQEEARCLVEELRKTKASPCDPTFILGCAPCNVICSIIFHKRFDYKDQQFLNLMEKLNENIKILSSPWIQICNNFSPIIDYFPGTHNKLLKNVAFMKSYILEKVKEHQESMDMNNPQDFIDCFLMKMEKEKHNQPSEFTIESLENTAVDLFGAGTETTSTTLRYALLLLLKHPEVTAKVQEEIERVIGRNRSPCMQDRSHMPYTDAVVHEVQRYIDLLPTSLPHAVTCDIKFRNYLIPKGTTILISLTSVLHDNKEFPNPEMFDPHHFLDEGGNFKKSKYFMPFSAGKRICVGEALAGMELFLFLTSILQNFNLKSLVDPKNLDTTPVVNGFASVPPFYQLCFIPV
The next data set addresses Cytochrome P450 2D6 (Homo sapiens, UniProt P10635). The experiment in a line: Inhibition of CYP2D6. The data set is classed as ADME.
The next data set deals with Cytochrome P450 3A4 (Homo sapiens, UniProt P08684). Nature of the data set: Inhibition of CYP3A4. It is filed as ADME.
Chain of Cytochrome P450 3A4 (P08684 whole entry): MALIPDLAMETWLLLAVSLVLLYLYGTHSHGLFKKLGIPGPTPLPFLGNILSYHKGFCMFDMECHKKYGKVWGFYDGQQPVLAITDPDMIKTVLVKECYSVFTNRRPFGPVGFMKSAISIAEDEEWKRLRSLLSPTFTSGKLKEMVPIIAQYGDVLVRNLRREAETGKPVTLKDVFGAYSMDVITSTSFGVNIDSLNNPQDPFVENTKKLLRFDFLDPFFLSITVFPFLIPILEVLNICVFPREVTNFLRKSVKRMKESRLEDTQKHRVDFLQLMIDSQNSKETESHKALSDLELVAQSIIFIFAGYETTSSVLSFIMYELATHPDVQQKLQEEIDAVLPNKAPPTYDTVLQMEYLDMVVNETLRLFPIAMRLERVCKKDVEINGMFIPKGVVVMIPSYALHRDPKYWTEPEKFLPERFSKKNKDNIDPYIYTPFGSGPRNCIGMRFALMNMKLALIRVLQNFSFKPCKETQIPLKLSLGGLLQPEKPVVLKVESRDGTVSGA
Data set [16] in a line: Cmax in po dosed rat. It is filed as ADME, organism-based. Details: route oral. The note with it: in vivo.
For data set [17], the system named is Rattus norvegicus. The experiment in a line: AUC (0 to 6 hrs) in po dosed rat. The data set is classed as ADME, organism-based, Plasma. Details: time < 6 hr, route oral. The following applies: in vivo.
A short description of data set [18]: Oral bioavailability in rat. The note with it: in vivo. It is filed as ADME, organism-based.
Data set [19] is described as follows: Drug uptake in ip dosed rat brain after 1 hr. The following applies: read-out: Drug uptake. The data set is classed as ADME, organism-based.
The nature of data set [20]: Ratio of drug level in brain to plasma in ip dosed rat. The following applies: brain and plasma, read-out: BPR. It is filed as ADME, organism-based.

Chain of Histamine H3 receptor (Rattus norvegicus, UniProt Q9QYN8) (Q9QYN8 whole entry): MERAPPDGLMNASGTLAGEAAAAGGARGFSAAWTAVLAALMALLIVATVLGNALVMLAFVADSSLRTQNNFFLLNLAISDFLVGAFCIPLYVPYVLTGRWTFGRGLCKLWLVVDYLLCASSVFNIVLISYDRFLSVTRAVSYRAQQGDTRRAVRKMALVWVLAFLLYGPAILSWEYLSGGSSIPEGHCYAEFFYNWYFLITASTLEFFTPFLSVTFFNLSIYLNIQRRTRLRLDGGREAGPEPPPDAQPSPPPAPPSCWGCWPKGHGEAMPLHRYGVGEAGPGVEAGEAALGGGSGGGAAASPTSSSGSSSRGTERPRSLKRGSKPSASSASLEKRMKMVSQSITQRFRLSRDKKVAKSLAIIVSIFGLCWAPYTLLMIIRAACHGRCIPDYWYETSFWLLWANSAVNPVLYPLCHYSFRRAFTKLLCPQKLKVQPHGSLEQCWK
Chain of Histamine H3 receptor (Homo sapiens, UniProt Q9Y5N1) (Q9Y5N1 whole entry): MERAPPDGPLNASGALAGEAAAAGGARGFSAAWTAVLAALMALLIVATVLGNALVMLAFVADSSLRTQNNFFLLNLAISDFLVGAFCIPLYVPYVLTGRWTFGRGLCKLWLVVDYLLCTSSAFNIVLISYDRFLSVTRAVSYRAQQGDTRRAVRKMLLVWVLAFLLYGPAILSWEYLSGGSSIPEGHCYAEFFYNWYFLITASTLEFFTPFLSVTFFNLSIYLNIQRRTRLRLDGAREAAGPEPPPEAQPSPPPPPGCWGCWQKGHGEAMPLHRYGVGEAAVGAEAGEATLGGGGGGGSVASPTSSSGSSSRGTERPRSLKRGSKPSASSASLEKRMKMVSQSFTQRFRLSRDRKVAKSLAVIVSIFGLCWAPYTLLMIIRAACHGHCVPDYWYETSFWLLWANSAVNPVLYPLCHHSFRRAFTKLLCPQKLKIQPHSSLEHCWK
Chain of Cytochrome P450 2D6 (P10635 whole entry): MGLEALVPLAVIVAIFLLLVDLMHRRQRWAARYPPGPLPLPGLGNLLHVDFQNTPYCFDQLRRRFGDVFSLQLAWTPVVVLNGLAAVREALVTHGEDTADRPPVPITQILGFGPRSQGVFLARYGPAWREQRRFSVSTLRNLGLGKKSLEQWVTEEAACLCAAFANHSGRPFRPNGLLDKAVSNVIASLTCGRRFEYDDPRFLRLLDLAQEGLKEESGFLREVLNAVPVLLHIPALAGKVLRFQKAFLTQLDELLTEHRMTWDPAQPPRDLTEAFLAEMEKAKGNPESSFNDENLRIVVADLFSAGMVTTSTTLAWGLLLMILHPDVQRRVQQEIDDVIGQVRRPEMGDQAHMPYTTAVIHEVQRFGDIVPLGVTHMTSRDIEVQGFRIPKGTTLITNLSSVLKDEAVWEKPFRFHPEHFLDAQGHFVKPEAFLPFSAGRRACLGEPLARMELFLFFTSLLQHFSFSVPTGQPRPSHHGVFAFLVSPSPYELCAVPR

Regarding `C[C@@H]1CCCN1CCCOc1ccc(-c2ccc(=O)n(C)n2)cc1`, the Ki (usually a measure of affinity in units of concentration, obtained from inhibition or displacement) at Histamine H3 receptor [1] was 1 nM; at Histamine H3 receptor [2], 6 nM. Also, the half-life in [3], in data set [4], in [5] and in [6] was more than 40 min in each case. Besides, the Vd (in general, the apparent volume that relates the amount in the body to the concentration in plasma or blood) in data set [7] was found to be 6.5 L/kg. The Cmax (in general, the maximum level reached in the sampled fluid or tissue) in data set [8] worked out at 123 ng/mL. The AUC – broadly, the area under the concentration-time curve, a measure of exposure – in the data set on Rattus norvegicus [9] came to 538 ng·h/mL. Besides, the bioavailability (as a rule, dose-corrected exposure relative to a reference, in per cent) in data set [10] came out at 28%. In data set [11], the concentration at 1 h worked out at 3440 ng/g. In addition, the Kp in data set [12] was 3.9. Further, the Tmax (usually the time at which the peak concentration occurs) in data set [13] is 60 min.
`Cn1nc(-c2ccc(C(=O)N3CCN4CCC[C@H]4C3)cc2)ccc1=O`: the Ki on Histamine H3 receptor [1] and on Histamine H3 receptor [2] was more than 1000 nM each time.
`Cn1nc(-c2ccc(OC3CCN(C4CCC4)CC3)cc2)ccc1=O`: the Ki on Histamine H3 receptor [1] and on Histamine H3 receptor [2] was 3 nM in each case. The half-life (usually the time needed for the level to fall by half in the phase considered) in data set [3] was 35 min.
As for `Cn1nc(-c2ccc(OC3CCN(C4CCCC4)CC3)cc2)ccc1=O`, the Ki amounted to 3 nM on Histamine H3 receptor [1] and 6 nM at Histamine H3 receptor [2].
The corresponding values for `CN1CCCN(c2ccc(-c3ccc(=O)n(C)n3)cc2)CC1` are more than 500 nM and more than 1000 nM.
As for `Cn1nc(-c2ccc(N3CCN(C4CCCC4)CC3)cc2)ccc1=O`, the Ki came to 93 nM on Histamine H3 receptor [1] and 255 nM on Histamine H3 receptor [2].
On to `CC(C)N1CCN(c2ccc(-c3ccc(=O)n(C)n3)cc2)CC1`, for which the figures for the Ki on Histamine H3 receptor [1] and on Histamine H3 receptor [2] were 110 nM and 419 nM, respectively.
The matching figures for `Cn1nc(-c2ccc(N3CCN4CCC[C@H]4C3)cc2)ccc1=O`: 308 nM and more than 1000 nM.
Take `Cn1nc(-c2ccc(C(=O)N3CCN(C4CCCC4)CC3)cc2)ccc1=O`: the Ki was found to be 134 nM at Histamine H3 receptor [1] and 186 nM on Histamine H3 receptor [2].
For the compound `CC(C)N1CCN(C(=O)c2ccc(-c3ccc(=O)n(C)n3)cc2)CC1`, the Ki on Histamine H3 receptor [1] turned out to be 167 nM; at Histamine H3 receptor [2] it was 185 nM.
Consider `Cn1nc(-c2ccc(C(=O)N3CCC[C@H]3CN3CCCC3)cc2)ccc1=O`, for which the inhibition constant (Ki) on Histamine H3 receptor [1] was found to be 10 nM; at Histamine H3 receptor [2], 84 nM. Besides, the half-life is more than 40 min in data set [3]; more than 40 min in [4]; more than 40 min in data set [5]; more than 40 min in data set [6]; 96 min in data set [14]. Moreover, in data set [7], the Vd is 2.5 L/kg. In data set [15], the clearance (usually the rate of elimination divided by the concentration) is 18 mL/min/kg. The compound further returned a Cmax in data set [8] of 412 ng/mL. The area under the curve (AUC) in the data set with Rattus norvegicus [9] amounted to 2180 ng·h/mL. Moreover, the bioavailability in [10] was 45%. The concentration at 1 h in data set [11] came out at 454 ng/g. Further, the Kp in data set [12] worked out at 0.37. The IC50 at Cytochrome P450 1A2, against Cytochrome P450 2C19, on Cytochrome P450 2C9, against Cytochrome P450 2D6 and against Cytochrome P450 3A4 was more than 30000 nM in each case.
On to `O=C(c1ccc(-c2ccc(=O)n(-c3ccc(F)cc3)n2)cc1)N1CCC[C@H]1CN1CCCC1`, for which the Ki amounted to 16 nM on Histamine H3 receptor [1] and 92 nM on Histamine H3 receptor [2]. The half-life in data set [3] was more than 40 min; in [4], more than 40 min; in data set [5], more than 40 min; in [6] it was more than 40 min; in data set [14], 60 min. For the same compound, the Vd in data set [7] was 1.1 L/kg. This compound came in with a clearance in data set [15] of 12 mL/min/kg. The highest level in [8] (Cmax) was 180 ng/mL. In the data set on Rattus norvegicus [9], this compound came in with an AUC of 1020 ng·h/mL. The bioavailability in data set [10] came out at 13%. Also, the concentration at 1 h in data set [11] turned out to be 529 ng/g. For the same compound, the Kp in [12] was found to be 0.7.
Take `O=C(c1ccc(-c2ccc(=O)[nH]n2)cc1)N1CCC[C@H]1CN1CCCC1`: the Ki on Histamine H3 receptor [1] was 17 nM; on Histamine H3 receptor [2], 46 nM.
With `CNC(=O)c1ccc(Oc2ccc3c(c2)CCN(C2CCC2)CC3)nc1` [GSK189254], the Cmax in data set [16] turned out to be 435 ng/mL. In the data set on Rattus norvegicus [17], this compound came in with an AUC of 2600 ng·h/mL. In addition, the bioavailability in [18] is 51%. Also, the concentration at 1 h in [19] amounted to 1660 ng/g. Besides, in data set [20], the Kp was determined as 1.4.
